# Source: patent US20240368121A1, “ESTROGEN RECEPTOR DEGRADERS, PHARMACEUTICAL COMPOSITIONS THEREOF, AND THEIR THERAPEUTIC APPLICATIONS” (BioTheryX, Inc., priority 2021, published 2024)
# Columns and labels:
# Assay type in all cases: cell-based
# [1] = system: MCF7 cells; experiment: Cell viability assay ([…]-GLO, 6-day treatment); conditions: Homo sapiens, MCF7, 144 h; MCF-7 cells, 6 days, CTG; read-out: Inhibition of Cancerous Cells IC50 MCF-7
# Protocol: (§1) A compound provided herein was evaluated for its anticancer activity in MCF7 and T47D cells. MCF7 and T47D cells were cultured at 37° C. in a humidified 5% C02 environment in MEM or RPMI, supplemented with 10% FBS with insulin, respectively. The cells were plated in 384-well microplates at a density of 1,000 cells per well in their respective maintenance media. The cells were treated with the compound by a 10-point dose response curve for 6 days, during which, the medium and compound were refreshed once. After the 6-day treatment, the cell viability was assessed using […]-GLO (CTG) reagent. Luminescence was measured with a microplate reader.
# [2] = system: T47D cells; experiment: Cell viability assay ([…]-GLO, 6-day treatment); conditions: Homo sapiens, 144 h, 6 days, CTG, read-out: Inhibition of Cancerous Cells IC50 T47D
# Protocol: as §1
# [3] = target: T1, ERα (Homo sapiens, UniProt P03372); experiment: Protein degradation assay: ERα in MCF-7 cells via western blot; conditions: 6 h; for ERα Protein Degradation 1 nM: 1 nM compound; for ERα Protein Degradation 10 nM: 10 nM compound; for ERα Protein Degradation 100 nM: 100 nM compound
# T1 construct: degrading an ERα in MCF-7 cells via a western blot; endogenous in cells; host or cells: MCF-7
# T1 sequence (P03372 1-595): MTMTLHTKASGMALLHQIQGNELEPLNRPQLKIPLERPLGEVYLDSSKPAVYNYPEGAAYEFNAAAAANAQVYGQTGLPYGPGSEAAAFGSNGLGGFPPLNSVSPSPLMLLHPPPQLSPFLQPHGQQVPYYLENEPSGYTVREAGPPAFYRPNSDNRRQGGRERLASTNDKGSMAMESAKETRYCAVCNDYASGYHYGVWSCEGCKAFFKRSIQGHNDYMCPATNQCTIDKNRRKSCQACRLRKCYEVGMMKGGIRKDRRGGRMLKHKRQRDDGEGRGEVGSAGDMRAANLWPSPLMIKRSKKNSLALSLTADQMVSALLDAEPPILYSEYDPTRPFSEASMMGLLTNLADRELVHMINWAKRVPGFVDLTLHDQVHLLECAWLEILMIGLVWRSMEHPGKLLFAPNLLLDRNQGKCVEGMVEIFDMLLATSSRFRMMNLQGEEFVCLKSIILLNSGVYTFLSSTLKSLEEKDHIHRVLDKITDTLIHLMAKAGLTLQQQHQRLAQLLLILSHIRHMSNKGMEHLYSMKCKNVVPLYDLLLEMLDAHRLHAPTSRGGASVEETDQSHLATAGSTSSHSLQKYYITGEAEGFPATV
# Protocol: A compound provided herein was assessed for its activity in degrading an ERα in MCF-7 cells via a western blot. The MCF7 cells were cultured at 37° C. in a humidified 5% C02 environment in MEM supplemented with 10% FBS with insulin. The cells were seeded in 12-well plates at a density of 300,000 cells per well in maintenance media. Cells were treated with the compound at predetermined concentrations (e.g., 1 nM, 10 nM, 100 nM, and 1 μM) for 6 h. The cells were then washed in PBS and the whole cells were lysed in a cell lysis buffer and incubated for 15 minutes on ice. Cell debris was removed by high-speed centrifugation and the cleared whole cell lysates were prepared for further analysis by a western blot. The whole cell protein extracts were separated on SDS-polyacrylamide gels, transferred to nitrocellulose membranes, and probed with primary antibodies, including anti-ERα antibody and GAPDH antibody for loading control. The membranes were subsequently washed and probed with secondary antibodies for chemiluminescence, followed by imaging on a BIORAD CHEMIDOC Imaging System. The results are summarized in Table 2, where “A” represents a percentage degradation value of no less than 50%; “B” represents a percentage degradation value of less than 50% and no less than 25%; “C” represents a percentage degradation value of less than 25% and no less than 10%; and “D” represents a percentage degradation value of less than 10%.
SMILES,IC50 [1],IC50 [2],ERα Protein Degradation 1 nM [3],ERα Protein Degradation 10 nM [3],ERα Protein Degradation 100 nM [3]
"O=C1CC[C@@H](N2Cc3cc(N4CCN(CC5CCN(c6ccc(C7c8ccc(O)cc8CC[C@@H]7c7ccccc7)cc6)CC5)CC4)ccc3C2=O)C(=O)N1 (stereo in doubt) [Compound A15, (R)-3-(5-(4-((1-(4-((1R,2S)-6-Hydroxy-2-phenyl-1,2,3,4-tetrahydronaphthalen-1-yl)phenyl)piperidin-4-yl)methyl)piperazin-1-yl)-1-oxoisoindolin-2-yl)piperidine-2,6-dione]",1.2 nM,0.96 nM,D (a percentage degradation value of less than 10%),C (a percentage degradation value of less than 25% and no less than 10%),D (a percentage degradation value of less than 10%)
"O=C1CCC(N2Cc3cc(N4CCN(CC5CCN(c6ccc(C7c8ccc(O)cc8CC[C@@H]7c7ccccc7)cc6)CC5)CC4)ccc3C2=O)C(=O)N1 (stereo in doubt) [Compound A16, (S)-3-(5-(4-((1-(4-((1R,2S)-6-Hydroxy-2-phenyl-1,2,3,4-tetrahydronaphthalen-1-yl)phenyl)piperidin-4-yl)methyl)piperazin-1-yl)-1-oxoisoindolin-2-yl)piperidine-2,6-dione]",0.68 nM,0.22 nM,B (a percentage degradation value of less than 50% and no less than 25%),A (a percentage degradation value of no less than 50%),A (a percentage degradation value of no less than 50%)
"O=C1CCC(N2Cc3c(cc(F)cc3C3CCN(CCCCOc4ccc([C@@H]5c6ccc(O)cc6CC[C@@H]5c5ccccc5)cc4)CC3)C2=O)C(=O)N1 (stereo partly drawn) [Compound A1, 3-(6-fluoro-4-(1-(4-(4-((1R,2S)-6-hydroxy-2-phenyl-1,2,3,4-tetrahydro-naphthalen-1-yl)phenoxy)butyl)piperidin-4-yl)-1-oxoisoindolin-2-yl)piperidine-2,6-dione]",< 0.01 nM,0.24 nM,C (a percentage degradation value of less than 25% and no less than 10%),C (a percentage degradation value of less than 25% and no less than 10%),B (a percentage degradation value of less than 50% and no less than 25%)
"Cn1nc(C2CCC(=O)NC2=O)c2cccc(OCC(=O)N3CCN(CCCCOc4ccc(CC5(C)C(c6ccc(O)cc6)=Nc6ccc(O)cc65)cc4)CC3)c21 (stereo not shown) [Compound D4, 3-(7-(2-(4-(4-(4-((5-hydroxy-2-(4-hydroxyphenyl)-3-methyl-3H-indol-3-yl)-methyl)phenoxy)butyl)piperazin-1-yl)-2-oxoethoxy)-1-methyl-1H-indazol-3-yl)piperidine-2,6-dione]",–,84 nM,D (a percentage degradation value of less than 10%),D (a percentage degradation value of less than 10%),C (a percentage degradation value of less than 25% and no less than 10%)
"Cc1c(-c2ccc(O)cc2)n(Cc2ccc(OCCCCN3CCN(C(=O)COc4cccc5c(N6CCC(=O)NC6=O)nn(C)c45)CC3)cc2)c2ccc(O)cc12 [Compound D23, 1-(7-(2-(4-(4-(4-((5-hydroxy-2-(4-hydroxyphenyl)-3-methyl-1H-indol-1-yl)-methyl)phenoxy)butyl)piperazin-1-yl)-2-oxoethoxy)-1-methyl-1H-indazol-3-yl)dihydro-pyrimidine-2,4(1H,3H)-dione]",1.7 nM,–,C (a percentage degradation value of less than 25% and no less than 10%),C (a percentage degradation value of less than 25% and no less than 10%),D (a percentage degradation value of less than 10%)
"Cc1c(-c2ccc(O)cc2)n(Cc2ccc(OCCCCN3CCN(c4cc5c(s4)CN(C4CCC(=O)NC4=O)C5=O)CC3)cc2)c2ccc(O)cc12 (stereo not shown) [Compound E6, 3-(2-(4-(4-(4-((5-Hydroxy-2-(4-hydroxyphenyl)-3-methyl-1H-indol-1-yl)methyl)-phenoxy)butyl)piperazin-1-yl)-4-oxo-4,6-dihydro-5H-thieno[2,3-c]pyrrol-5-yl)piperidine-2,6-dione]",0.22 nM,–,D (a percentage degradation value of less than 10%),D (a percentage degradation value of less than 10%),D (a percentage degradation value of less than 10%)
"Cc1c(-c2ccc(O)cc2)n(Cc2ccc(OCCCCN3CCN(C(=O)COc4ccc5c(C6CCC(=O)NC6=O)nn(C)c5c4)CC3)cc2)c2ccc(O)cc12 (stereo not shown) [Compound E14, 3-(6-(2-(4-(4-(4-((5-Hydroxy-2-(4-hydroxyphenyl)-3-methyl-1H-indol-1-yl)-methyl)phenoxy)butyl)piperazin-1-yl)-2-oxoethoxy)-1-methyl-1H-indazol-3-yl)piperidine-2,6-dione]",0.33 nM,–,B (a percentage degradation value of less than 50% and no less than 25%),B (a percentage degradation value of less than 50% and no less than 25%),D (a percentage degradation value of less than 10%)
"Cc1c(-c2ccc(O)cc2)n(Cc2ccc(OCCCCN3CCN(C(=O)COc4ccc(C5CCC(=O)NC5=O)cc4)CC3)cc2)c2ccc(O)cc12 (stereo not shown) [Compound E24, 3-(4-(2-(4-(4-(4-((5-hydroxy-2-(4-hydroxyphenyl)-3-methyl-1H-indol-1-yl)-methyl)phenoxy)butyl)piperazin-1-yl)-2-oxoethoxy)phenyl)piperidine-2,6-dione]",1.7 nM,–,D (a percentage degradation value of less than 10%),D (a percentage degradation value of less than 10%),D (a percentage degradation value of less than 10%)
"Cc1c(-c2ccc(O)cc2)n(Cc2ccc(OCCCCN3CCN(C(=O)COc4cccc(C5CCC(=O)NC5=O)c4)CC3)cc2)c2ccc(O)cc12 (stereo not shown) [Compound E25, 3-(3-(2-(4-(4-(4-((5-Hydroxy-2-(4-hydroxyphenyl)-3-methyl-1H-indol-1-yl)-methyl)phenoxy)butyl)piperazin-1-yl)-2-oxoethoxy)phenyl)piperidine-2,6-dione]",5 nM,–,D (a percentage degradation value of less than 10%),D (a percentage degradation value of less than 10%),D (a percentage degradation value of less than 10%)
"Cc1c(-c2ccc(O)cc2)n(Cc2ccc(OCCCCN3CCN(C(=O)COc4cccc(N5CCC(=O)NC5=O)c4)CC3)cc2)c2ccc(O)cc12 [Compound E26, 1-(3-(2-(4-(4-(4-((5-Hydroxy-2-(4-hydroxyphenyl)-3-methyl-1H-indol-1-yl)-methyl)phenoxy)butyl)piperazin-1-yl)-2-oxoethoxy)phenyl)dihydropyrimidine-2,4(1H,3H)-dione]",3.8 nM,–,D (a percentage degradation value of less than 10%),D (a percentage degradation value of less than 10%),D (a percentage degradation value of less than 10%)
